Assay: recombinant UMI read abundance after kanamycin selection (control-corrected) (log10(CPM+1)); higher = more efficient recombination; extreme values may be limits of the assay; sequences stand for … in AGTGCAGAGAAAATCGGCCAGTTTTCTCTGCCTGCAGTCCGCATGCCGTGGGACCCCTTGGGTTCTAACCTGTTGCCTAGATTTATGCAGCGGACTGCCTTTCTCCCAAAGTGATAAACCGG…AGGTTGGTTTCACT; site = the 11-nt donor
Summary of the method: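 Under IPTG (0.07 mM) plus kanamycin, or without selection, Escherichia coli carrying a UMI-tagged donor and donor-binding-loop pair library and a target plasmid for the IS621 bridge recombinase were plated in two replicates. Recombinant UMIs were PCR-amplified across the donor–target junction and sequenced. Counts were converted to CPM, averaged over replicates, scaled by control-derived factors and reported as log10(CPM+1).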
With “CACACATCATGGACCGGTTTTCCCGGTAATCCGTATTTGCC (site CACACATCTGG)” the “recombinant UMI read abundance (log10)” value was 2.15.
In the case of “CACACCTCATGGACCGGTTTTCCCGGTAATCCGTATTTGGC (site CACACCTCTGC)”, the “recombinant UMI read abundance (log10)” value is reported as 3.07.
With “CACACTGCATGGACCGGTTTTCCCGGTAATCCGTATTTGTA (site CACACTGCTTA)” the “recombinant UMI read abundance (log10)” value was 1.72.
For “CACAGATCATGGACCGGTTTTCCCGGTAATCCGTATTTGAT (site CACAGATCTAT)”, the “recombinant UMI read abundance (log10)” value was 2.37.
In the case of “CACATGGCATGGACCGGTTTTCCCGGTAATCCGTATTTGTA (site CACATGGCTTA)”, the “recombinant UMI read abundance (log10)” value is reported as 2.31.
With “CACCAGTCATGGACCGGTTTTCCCGGTAATCCGTATTTGAC (site CACCAGTCTGT)” the “recombinant UMI read abundance (log10)” value was 0.85.
For “CACCGTACATGGACCGGTTTTCCCGGTAATCCGTATTTGCG (site CACCGTACTCG)”, the “recombinant UMI read abundance (log10)” value was 1.35.
In the case of “CACCGTCCATGGACCGGTTTTCCCGGTAATCCGTATTTGAT (site AACCGTCCTAT)”, the “recombinant UMI read abundance (log10)” value is reported as 0.117.
In the case of “CACCGTCCATGGACCGGTTTTCCCGGTAATCCGTATTTGAT (site CACCGTCCTAT)”, the “recombinant UMI read abundance (log10)” value is reported as 1.03.
For “CACCGTCCATGGACCGGTTTTCCCGGTAATCCGTATTTGAT (site GACCGTCCTAT)”, the “recombinant UMI read abundance (log10)” value was 0.00326.
In the case of “CACCGTCCATGGACCGGTTTTCCCGGTAATCCGTATTTGAT (site TACCGTCCTAT)”, the “recombinant UMI read abundance (log10)” value is reported as 0.0173.
In the case of “CACCTCTCATGGACCGGTTTTCCCGGTAATCCGTATTTGCT (site CACCTCTCTAG)”, the “recombinant UMI read abundance (log10)” value is reported as 2.84.
For “CACCTGCCATGGACCGGTTTTCCCGGTAATCCGTATTTGTC (site CACCTGCCTGA)”, the “recombinant UMI read abundance (log10)” value was 0.
For “CACCTTACATGGACCGGTTTTCCCGGTAATCCGTATTTGGG (site CACCTTACTCC)”, the “recombinant UMI read abundance (log10)” value was 0.0575.
For “CACGCAGCATGGACCGGTTTTCCCGGTAATCCGTATTTGCT (site CAAGCAGCTAG)”, the “recombinant UMI read abundance (log10)” value was 0.
With “CACGCAGCATGGACCGGTTTTCCCGGTAATCCGTATTTGCT (site CACGCAGCTAG)” the “recombinant UMI read abundance (log10)” value was 2.31.
For “CACGCAGCATGGACCGGTTTTCCCGGTAATCCGTATTTGCT (site CAGGCAGCTAG)”, the “recombinant UMI read abundance (log10)” value was 0.261.
For “CACGCAGCATGGACCGGTTTTCCCGGTAATCCGTATTTGCT (site CATGCAGCTAG)”, the “recombinant UMI read abundance (log10)” value was 0.
For “CACGCCGCATGGACCGGTTTTCCCGGTAATCCGTATTTGGT (site TTAAGTTCTTG)”, the “recombinant UMI read abundance (log10)” value was 0.
In the case of “CACGCGTCATGGACCGGTTTTCCCGGTAATCCGTATTTGAG (site CACGCGTCTCT)”, the “recombinant UMI read abundance (log10)” value is reported as 2.11.
In the case of “CACGGCACATGGACCGGTTTTCCCGGTAATCCGTATTTGTT (site CACGGCACTAA)”, the “recombinant UMI read abundance (log10)” value is reported as 1.6.
With “CACGGCACATGGACCGGTTTTCCCGGTAATCCGTATTTGTT (site CACGGCCCTAA)” the “recombinant UMI read abundance (log10)” value was 0.00343.
For “CACGGCACATGGACCGGTTTTCCCGGTAATCCGTATTTGTT (site CACGGCGCTAA)”, the “recombinant UMI read abundance (log10)” value was 0.6.
In the case of “CACGGCACATGGACCGGTTTTCCCGGTAATCCGTATTTGTT (site CACGGCTCTAA)”, the “recombinant UMI read abundance (log10)” value is reported as 0.746.
For “CACGGCTCATGGACCGGTTTTCCCGGTAATCCGTATTTGTT (site CACGGCACTAA)”, the “recombinant UMI read abundance (log10)” value was 0.963.
With “CACGGCTCATGGACCGGTTTTCCCGGTAATCCGTATTTGTT (site CACGGCCCTAA)” the “recombinant UMI read abundance (log10)” value was 0.277.
For “CACGGCTCATGGACCGGTTTTCCCGGTAATCCGTATTTGTT (site CACGGCGCTAA)”, the “recombinant UMI read abundance (log10)” value was 0.0461.
In the case of “CACGGCTCATGGACCGGTTTTCCCGGTAATCCGTATTTGTT (site CACGGCTCTAA)”, the “recombinant UMI read abundance (log10)” value is reported as 3.26.
With “CACGTACCATGGACCGGTTTTCCCGGTAATCCGTATTTGAA (site CACGTACCTTT)” the “recombinant UMI read abundance (log10)” value was 0.24.
With “CACGTCACATGGACCGGTTTTCCCGGTAATCCGTATTTGAG (site CACGTCACTCT)” the “recombinant UMI read abundance (log10)” value was 1.36.
With “CACTACGCATGGACCGGTTTTCCCGGTAATCCGTATTTGGA (site CACTACGCTTC)” the “recombinant UMI read abundance (log10)” value was 1.41.
With “CACTCATCATGGACCGGTTTTCCCGGTAATCCGTATTTGCC (site CACTCATCTGG)” the “recombinant UMI read abundance (log10)” value was 1.74.
For “CACTCATCATGGACCGGTTTTCCCGGTAATCCGTATTTGCC (site CACTCCTCTGG)”, the “recombinant UMI read abundance (log10)” value was 0.652.
For “CACTCATCATGGACCGGTTTTCCCGGTAATCCGTATTTGCC (site CACTCGTCTGG)”, the “recombinant UMI read abundance (log10)” value was 0.
With “CACTCATCATGGACCGGTTTTCCCGGTAATCCGTATTTGCC (site CACTCTTCTGG)” the “recombinant UMI read abundance (log10)” value was 0.
With “CACTCCACATGGACCGGTTTTCCCGGTAATCCGTATTTGCC (site CACTCCACTGG)” the “recombinant UMI read abundance (log10)” value was 2.65.
In the case of “CACTCCACATGGACCGGTTTTCCCGGTAATCCGTATTTGCC (site CACTCCCCTGG)”, the “recombinant UMI read abundance (log10)” value is reported as 0.
In the case of “CACTCCACATGGACCGGTTTTCCCGGTAATCCGTATTTGCC (site CACTCCGCTGG)”, the “recombinant UMI read abundance (log10)” value is reported as 1.8.
For “CACTCCACATGGACCGGTTTTCCCGGTAATCCGTATTTGCC (site CACTCCTCTGG)”, the “recombinant UMI read abundance (log10)” value was 1.26.
For “CACTCCGCATGGACCGGTTTTCCCGGTAATCCGTATTTGCC (site CACTCCACTGG)”, the “recombinant UMI read abundance (log10)” value was 2.05.
For “CACTCCGCATGGACCGGTTTTCCCGGTAATCCGTATTTGCC (site CACTCCCCTGG)”, the “recombinant UMI read abundance (log10)” value was 0.
For “CACTCCGCATGGACCGGTTTTCCCGGTAATCCGTATTTGCC (site CACTCCGCTGG)”, the “recombinant UMI read abundance (log10)” value was 2.73.
With “CACTCCGCATGGACCGGTTTTCCCGGTAATCCGTATTTGCC (site CACTCCTCTGG)” the “recombinant UMI read abundance (log10)” value was 1.36.
In the case of “CACTCCTCATGGACCGGTTTTCCCGGTAATCCGTATTTGAG (site CACTCCTCTCT)”, the “recombinant UMI read abundance (log10)” value is reported as 0.883.
With “CACTCCTCATGGACCGGTTTTCCCGGTAATCCGTATTTGCA (site CACTCCTCTAG)” the “recombinant UMI read abundance (log10)” value was 0.743.
In the case of “CACTCCTCATGGACCGGTTTTCCCGGTAATCCGTATTTGCA (site CACTCCTCTCG)”, the “recombinant UMI read abundance (log10)” value is reported as 1.09.
In the case of “CACTCCTCATGGACCGGTTTTCCCGGTAATCCGTATTTGCA (site CACTCCTCTGG)”, the “recombinant UMI read abundance (log10)” value is reported as 1.21.
For “CACTCCTCATGGACCGGTTTTCCCGGTAATCCGTATTTGCA (site CACTCCTCTTG)”, the “recombinant UMI read abundance (log10)” value was 2.98.
For “CACTCCTCATGGACCGGTTTTCCCGGTAATCCGTATTTGCC (site AACTCCTCTGG)”, the “recombinant UMI read abundance (log10)” value was 0.563.
With “CACTCCTCATGGACCGGTTTTCCCGGTAATCCGTATTTGCC (site CAATCCTCTGG)” the “recombinant UMI read abundance (log10)” value was 0.883.
For “CACTCCTCATGGACCGGTTTTCCCGGTAATCCGTATTTGCC (site CACACCTCTGG)”, the “recombinant UMI read abundance (log10)” value was 1.79.
For “CACTCCTCATGGACCGGTTTTCCCGGTAATCCGTATTTGCC (site CACCCCTCTGG)”, the “recombinant UMI read abundance (log10)” value was 2.8.
With “CACTCCTCATGGACCGGTTTTCCCGGTAATCCGTATTTGCC (site CACGCCTCTGG)” the “recombinant UMI read abundance (log10)” value was 0.524.
With “CACTCCTCATGGACCGGTTTTCCCGGTAATCCGTATTTGCC (site CACTACTCTGG)” the “recombinant UMI read abundance (log10)” value was 1.17.
With “CACTCCTCATGGACCGGTTTTCCCGGTAATCCGTATTTGCC (site CACTCATCTGG)” the “recombinant UMI read abundance (log10)” value was 0.425.
For “CACTCCTCATGGACCGGTTTTCCCGGTAATCCGTATTTGCC (site CACTCCACTGG)”, the “recombinant UMI read abundance (log10)” value was 0.838.
In the case of “CACTCCTCATGGACCGGTTTTCCCGGTAATCCGTATTTGCC (site CACTCCCCTGG)”, the “recombinant UMI read abundance (log10)” value is reported as 0.105.
With “CACTCCTCATGGACCGGTTTTCCCGGTAATCCGTATTTGCC (site CACTCCGCTGG)” the “recombinant UMI read abundance (log10)” value was 0.0071.
In the case of “CACTCCTCATGGACCGGTTTTCCCGGTAATCCGTATTTGCC (site CACTCCTCTAG)”, the “recombinant UMI read abundance (log10)” value is reported as 1.36.
For “CACTCCTCATGGACCGGTTTTCCCGGTAATCCGTATTTGCC (site CACTCCTCTCG)”, the “recombinant UMI read abundance (log10)” value was 0.00305.
For “CACTCCTCATGGACCGGTTTTCCCGGTAATCCGTATTTGCC (site CACTCCTCTGA)”, the “recombinant UMI read abundance (log10)” value was 0.906.
With “CACTCCTCATGGACCGGTTTTCCCGGTAATCCGTATTTGCC (site CACTCCTCTGC)” the “recombinant UMI read abundance (log10)” value was 0.0424.
In the case of “CACTCCTCATGGACCGGTTTTCCCGGTAATCCGTATTTGCC (site CACTCCTCTGG)”, the “recombinant UMI read abundance (log10)” value is reported as 3.11.
For “CACTCCTCATGGACCGGTTTTCCCGGTAATCCGTATTTGCC (site CACTCCTCTGT)”, the “recombinant UMI read abundance (log10)” value was 2.74.
For “CACTCCTCATGGACCGGTTTTCCCGGTAATCCGTATTTGCC (site CACTCCTCTTG)”, the “recombinant UMI read abundance (log10)” value was 2.48.
With “CACTCCTCATGGACCGGTTTTCCCGGTAATCCGTATTTGCC (site CACTCGTCTGG)” the “recombinant UMI read abundance (log10)” value was 0.
With “CACTCCTCATGGACCGGTTTTCCCGGTAATCCGTATTTGCC (site CACTCTTCTGG)” the “recombinant UMI read abundance (log10)” value was 0.
In the case of “CACTCCTCATGGACCGGTTTTCCCGGTAATCCGTATTTGCC (site CACTGCTCTGG)”, the “recombinant UMI read abundance (log10)” value is reported as 0.00619.
With “CACTCCTCATGGACCGGTTTTCCCGGTAATCCGTATTTGCC (site CACTTCTCTGG)” the “recombinant UMI read abundance (log10)” value was 0.
In the case of “CACTCCTCATGGACCGGTTTTCCCGGTAATCCGTATTTGCC (site CAGTCCTCTGG)”, the “recombinant UMI read abundance (log10)” value is reported as 1.2.
With “CACTCCTCATGGACCGGTTTTCCCGGTAATCCGTATTTGCC (site CATTCCTCTGG)” the “recombinant UMI read abundance (log10)” value was 1.62.
For “CACTCCTCATGGACCGGTTTTCCCGGTAATCCGTATTTGCC (site CCCTCCTCTGG)”, the “recombinant UMI read abundance (log10)” value was 0.97.
For “CACTCCTCATGGACCGGTTTTCCCGGTAATCCGTATTTGCC (site CGCTCCTCTGG)”, the “recombinant UMI read abundance (log10)” value was 1.95.
For “CACTCCTCATGGACCGGTTTTCCCGGTAATCCGTATTTGCC (site CTCTCCTCTGG)”, the “recombinant UMI read abundance (log10)” value was 2.29.
For “CACTCCTCATGGACCGGTTTTCCCGGTAATCCGTATTTGCC (site GACTCCTCTGG)”, the “recombinant UMI read abundance (log10)” value was 0.

From the supplement of paper PMC11208160
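Also: IS621 bridge recombinase in Escherichia coli cells against a fixed T5 target plasmid.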
